Reference: patent publication US20060063785A1, “Substituted pyrazolo[1,5-a] pyrimidines and process for making same” (priority 2004, published 2006)

Test system: not given
Assay: not given
Conditions: not given
`O=C(Nc1cccc(-c2ccnc3c(C(=O)c4cccs4)cnn23)c1)OCC(Cl)(Cl)Cl` [Example 12, 2,2,2-trichloroethyl 3-[3-(thien-2-ylcarbonyl)pyrazolo[1,5-a]pyrimidin-7-yl]phenylcarbamate] gave a melting point of 197 to 200 °C.
`CCC(C)C(C)CNc1cccc(-c2ccnc3c(C(=O)c4cccs4)cnn23)c1` (stereo not drawn) [Example 318] showed a melting point of 84 to 86 °C.
In the case of `C/C=C(\C)CNc1cccc(-c2ccnc3c(C(=O)c4cccs4)cnn23)c1` [Example 319], the melting point is reported as 118 to 120 °C.
`CC/C=C/CNc1cccc(-c2ccnc3c(C(=O)c4cccs4)cnn23)c1` [Example 320] gave a melting point of 72 to 75 °C.
Work on `C=C(C)CNc1cccc(-c2ccnc3c(C(=O)c4cccs4)cnn23)c1` [Example 322] yielded a melting point of 104 to 106 °C.
With `C=C(CC)CNc1cccc(-c2ccnc3c(C(=O)c4cccs4)cnn23)c1` [Example 323] the melting point was 79 to 82 °C.
With `O=C(O)c1ccccc1C(=O)Nc1cccc(-c2ccnc3c(C(=O)c4cccs4)cnn23)c1` [Example 331, 2-[({3-[3-(Thien-2-ylcarbonyl)pyrazolo[1,5-a]pyrimidin-7-yl]phenyl}amino)carbonyl]benzoic acid] the melting point was 215 to 216 °C.
In the case of `CC(C)CC(=O)Nc1cccc(-c2ccnc3c(-c4cccc(N)c4)cnn23)c1` [Example 352, N-{3-[3-(3-Aminophenyl)pyrazolo[1,5-a]pyrimidin-7-yl]phenyl}-3-methylbutanamide], the melting point is reported as 173 to 175 °C.

Test system: 80S14 (p21-deficient) cells
Assay: Determination of selectivity of compounds for p21-/- cells: IC50 in 80S14 cells (SRB)
Format: cell-based, human
Conditions: Homo sapiens, 120 h; 80S14 (p21-deficient) cells, 5 days at 37° C., SRB; read-out: IC50 for 80S14
With `O=C(Nc1cccc(-c2ccnc3c(C(=O)c4cccs4)cnn23)c1)OCC(Cl)(Cl)Cl` [Example 12, 2,2,2-trichloroethyl 3-[3-(thien-2-ylcarbonyl)pyrazolo[1,5-a]pyrimidin-7-yl]phenylcarbamate] the IC50 was under 1000 nM.
